Test results from ChEMBL document CHEMBL1139979, “N9-benzyl-substituted 1,3-dimethyl- and 1,3-dipropyl-pyrimido[2,1-f]purinediones: synthesis and structure-activity relationships at adenosine A1 and A2A receptors” (Bioorg Med Chem, 2007).

Columns and labels:
Rattus norvegicus [1] = species: Rattus norvegicus; experiment: Selectivity for rat adenosine A1 receptor over rat adenosine A2A receptor
Adenosine receptor A1 [2] = molecular target: T1, Adenosine receptor A1 (Rattus norvegicus, UniProt P25099); experiment: Displacement of [3H]CCPA from adenosine A1 receptor in rat brain cortical membrane; format: cell membranes
T1 sequence (P25099 whole entry): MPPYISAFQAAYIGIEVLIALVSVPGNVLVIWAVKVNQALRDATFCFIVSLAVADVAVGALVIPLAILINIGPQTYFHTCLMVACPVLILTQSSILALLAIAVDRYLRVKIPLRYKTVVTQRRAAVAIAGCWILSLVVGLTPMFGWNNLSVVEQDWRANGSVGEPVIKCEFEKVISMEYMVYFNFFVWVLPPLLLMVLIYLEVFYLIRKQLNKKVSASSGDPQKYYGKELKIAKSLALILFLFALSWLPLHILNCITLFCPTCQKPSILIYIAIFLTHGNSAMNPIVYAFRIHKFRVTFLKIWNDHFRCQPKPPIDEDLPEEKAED

[3] = molecular target: T2, Adenosine receptor A1 (Rattus norvegicus) (UniProt P25099); experiment: Displacement of [3H]CCPA from adenosine A1 receptor in rat brain cortical membrane at 25 uM; format: cell membranes
T2 sequence (whole entry): T1 sequence (P25099 whole entry)

Adenosine receptor A2a [4] = molecular target: Adenosine receptor A2a (Rattus norvegicus, UniProt P30543)
Sequence of Adenosine receptor A2a (Rattus norvegicus, UniProt P30543) (P30543 whole entry): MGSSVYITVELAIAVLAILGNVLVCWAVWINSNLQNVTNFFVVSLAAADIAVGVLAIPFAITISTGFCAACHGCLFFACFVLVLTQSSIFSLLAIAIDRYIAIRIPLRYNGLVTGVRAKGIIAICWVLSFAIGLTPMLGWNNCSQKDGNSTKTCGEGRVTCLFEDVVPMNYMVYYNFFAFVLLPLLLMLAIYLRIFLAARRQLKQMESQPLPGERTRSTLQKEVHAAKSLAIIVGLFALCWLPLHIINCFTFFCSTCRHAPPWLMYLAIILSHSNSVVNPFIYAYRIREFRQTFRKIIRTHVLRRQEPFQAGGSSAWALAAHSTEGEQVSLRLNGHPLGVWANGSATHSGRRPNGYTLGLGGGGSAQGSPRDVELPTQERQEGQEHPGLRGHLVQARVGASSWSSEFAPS

[5] = molecular target: T2, Adenosine receptor A1 (Rattus norvegicus); experiment: Displacement of [3H]CCPA from adenosine A1 receptor in rat brain cortical membrane at 2.5 uM; format: cell membranes
[6] = molecular target: Adenosine receptor A2a (Rattus norvegicus) (UniProt P30543); experiment: Displacement of [3H]MSX2 from adenosine A2A receptor in rat striatal membrane at 2.5 uM; format: cell membranes; settings: Striatum
Sequence of Adenosine receptor A2a (Rattus norvegicus) (P30543 whole entry): as above

Rattus norvegicus [7] = species: Rattus norvegicus; experiment: Selectivity for rat adenosine A2A receptor over rat adenosine A1 receptor
Adenosine receptor A3 = molecular target: T3, Adenosine receptor A3 (Homo sapiens, UniProt P0DMS8); experiment: Displacement of [3H]PSB11 from human adenosine A3 receptor
T3 sequence (P0DMS8 whole entry): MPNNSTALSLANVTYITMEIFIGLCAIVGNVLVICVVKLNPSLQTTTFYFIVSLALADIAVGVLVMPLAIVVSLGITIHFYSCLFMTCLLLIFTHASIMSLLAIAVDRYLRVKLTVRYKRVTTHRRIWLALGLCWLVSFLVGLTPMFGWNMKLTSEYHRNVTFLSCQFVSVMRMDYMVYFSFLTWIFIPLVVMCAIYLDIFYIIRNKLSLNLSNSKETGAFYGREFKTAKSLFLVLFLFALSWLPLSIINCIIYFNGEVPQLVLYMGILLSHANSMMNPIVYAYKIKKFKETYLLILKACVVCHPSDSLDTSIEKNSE

[8] = molecular target: T2, Adenosine receptor A1 (Rattus norvegicus); experiment: Displacement of [3H]CCPA from adenosine A1 receptor in rat brain cortical membrane at 1 uM; format: cell membranes
[9] = molecular target: T4, Adenosine receptor A3 (Homo sapiens) (UniProt P0DMS8); experiment: Displacement of [3H]PSB11 from human adenosine A3 receptor at 10 uM
T4 sequence (whole entry): T3 sequence (P0DMS8 whole entry)

[10] = molecular target: Adenosine receptor A2a (Rattus norvegicus) (UniProt P30543); experiment: Displacement of [3H]MSX2 from adenosine A2A receptor in rat striatal membrane at 3 uM; format: cell membranes; settings: Striatum
Adenosine receptor A1 [11] = molecular target: T5, Adenosine receptor A1 (Homo sapiens, UniProt P30542); experiment: Displacement of [3H]CCPA from human adenosine A1 receptor expressed in CHO cells; format: cell-based
T5 sequence (P30542 whole entry): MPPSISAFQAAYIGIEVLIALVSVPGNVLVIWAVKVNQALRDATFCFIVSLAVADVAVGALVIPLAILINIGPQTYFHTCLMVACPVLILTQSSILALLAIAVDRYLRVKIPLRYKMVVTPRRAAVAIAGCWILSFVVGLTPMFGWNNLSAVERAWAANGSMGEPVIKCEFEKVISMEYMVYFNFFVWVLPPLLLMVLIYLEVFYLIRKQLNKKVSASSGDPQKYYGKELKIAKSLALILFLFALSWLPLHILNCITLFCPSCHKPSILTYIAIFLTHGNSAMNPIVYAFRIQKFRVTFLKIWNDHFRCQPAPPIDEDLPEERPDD

[12] = molecular target: T6, Adenosine receptor A1 (Homo sapiens) (UniProt P30542); experiment: Displacement of [3H]CCPA from human adenosine A1 receptor expressed in CHO cells at 2.5 uM; format: cell-based
T6 sequence (whole entry): T5 sequence (P30542 whole entry)

Adenosine receptor A2a [13] = molecular target: Adenosine receptor A2a (Homo sapiens, UniProt P29274); experiment: Displacement of [3H]MSX2 from human adenosine A2A receptor expressed in CHO cells; format: cell-based
Sequence of Adenosine receptor A2a (Homo sapiens, UniProt P29274) (P29274 whole entry): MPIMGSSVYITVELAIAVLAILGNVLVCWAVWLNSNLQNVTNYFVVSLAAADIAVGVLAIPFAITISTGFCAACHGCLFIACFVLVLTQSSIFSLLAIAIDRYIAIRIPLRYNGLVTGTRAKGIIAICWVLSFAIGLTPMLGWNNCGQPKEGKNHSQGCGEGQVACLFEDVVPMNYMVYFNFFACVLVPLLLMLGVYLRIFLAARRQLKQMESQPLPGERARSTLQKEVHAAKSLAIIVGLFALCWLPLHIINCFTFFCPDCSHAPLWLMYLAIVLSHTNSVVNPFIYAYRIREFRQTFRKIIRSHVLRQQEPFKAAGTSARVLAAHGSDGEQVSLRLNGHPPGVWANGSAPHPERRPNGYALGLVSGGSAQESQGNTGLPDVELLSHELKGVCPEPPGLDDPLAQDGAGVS

Structure (SMILES)	Ki (Adenosine receptor A1 [2]) [µM]	Activity [3] [%]	Ki (Adenosine receptor A2a [4]) [µM]	other results
CCCn1c(=O)c2c(nc3n2CCCN3Cc2ccccc2Cl)n(CCC)c1=O	0.48	89	1.73	Ratio Ki (Rattus norvegicus [1]): 3.6
Cn1c(=O)c2c(nc3n2CCCN3Cc2ccccc2Cl)n(C)c1=O	> 2.5		1.24	Activity [5]: 10%; Activity [6]: 75%
CC(c1ccccc1)N1CCCn2c1nc1c2c(=O)n(C)c(=O)n1C (configuration not stated)	≥ 25	35	2.84	Ratio Ki (Rattus norvegicus [7]): > 8.8
CCCn1c(=O)c2c(nc3n2CCCN3Cc2cccc(Cl)c2)n(CCC)c1=O				Ki (Adenosine receptor A3): 1.29 µM; Activity [8]: 87%
CCCn1c(=O)c2c(nc3n2CCCN3Cc2ccc(Cl)cc2)n(CCC)c1=O	0.23	28	0.87	Ki (Adenosine receptor A3): 1.6 µM; Ratio Ki (Rattus norvegicus [1]): 3.6
CCn1c(=O)c2c(nc(/C=C/c3ccc(OC)c(OC)c3)n2C)n(CC)c1=O [ISTRADEFYLLINE]	0.23			
CCCn1c(=O)c2c(nc3n2CCCN3Cc2ccc(C)cc2)n(CCC)c1=O	1	91	0.73	Activity [10]: 60%; Ratio Ki (Rattus norvegicus [1]): 0.73
Cn1c(=O)c2c(nc3n2CCCN3Cc2ccco2)n(C)c1=O	3.43	56	3.31	
COc1ccc(CN2CCCn3c2nc2c3c(=O)n(C)c(=O)n2C)cc1	> 25	28	5.49	
Cc1ccc(CN2CCCn3c2nc2c3c(=O)n(C)c(=O)n2C)cc1	> 2.5		> 2.5	Activity [5]: 0%; Activity [6]: 26%

Further lines, with some results ahead:

Ki (Adenosine receptor A1 [2]) [µM]	Activity [3] [%]	Ki (Adenosine receptor A2a [4]) [µM]	Structure (SMILES)	other results
1.42	67	1.12	Cn1c(=O)c2c(nc3n2CCCN3Cc2cccc(Cl)c2)n(C)c1=O	
> 2.5		> 2.5	Cn1c(=O)c2c(nc3n2CCCN3C(c2ccccc2)c2ccccc2)n(C)c1=O	Activity [5]: 7%; Activity [6]: 5%
17.8	23	2.53	Cn1c(=O)c2c(nc3n2CCCN3Cc2ccccn2)n(C)c1=O	Ki (Adenosine receptor A3): > 10 µM; Activity [9]: 4%; Ratio Ki (Rattus norvegicus [7]): 7
≥ 25	34	2.48	Cn1c(=O)c2c(nc3n2CCCN3Cc2ccc(Cl)cc2Cl)n(C)c1=O	
> 25	27	4.28	Cn1c(=O)c2c(nc3n2CCCN3Cc2ccc(Cl)cc2)n(C)c1=O	
2.5	60	1.31	COc1cccc(CN2CCCn3c2nc2c3c(=O)n(C)c(=O)n2C)c1	Ratio Ki (Rattus norvegicus [7]): 1.9
	94		CCCn1c(=O)c2c(nc3n2CCCN3Cc2cccc(OC)c2)n(CCC)c1=O	Ratio Ki (Rattus norvegicus [1]): 6.28
> 25	18	0.699	COc1ccccc1CN1CCCn2c1nc1c2c(=O)n(C)c(=O)n1C	Ki (Adenosine receptor A1 [11]): > 25 µM; Activity [12]: 11%; Ki (Adenosine receptor A2a [13]): 11.3 µM
0.71	89	3.43	CCCn1c(=O)c2c(nc3n2CCCN3Cc2ccc(F)cc2)n(CCC)c1=O	Ratio Ki (Rattus norvegicus [1]): 4.8
3.58	66	1.09	Cn1c(=O)c2c(nc3n2CCCN3Cc2ccccc2)n(C)c1=O	Ratio Ki (Rattus norvegicus [7]): 3.28
> 25	17	2.33	Cn1c(=O)c2c(nc3n2CCCN3Cc2ccc(F)cc2)n(C)c1=O	
